# Measured values taken from patent publication US20170051149A1, “AZOARYLS AS REVERSIBLY MODULATABLE TUBULIN INHIBITORS” (ECOLE NORMALE SUPERIEURE DE LYON, priority 2014, published 2017).
# Experiments:
# [1] = test system: HEK-293T cells; assay: MTT assay, light-dependent cell proliferation; type: cell-based; conditions: 72 h
# [2] = fluorescence spectrophotometry (excitation and emission spectra); type: physicochemical
# Protocol: Absorption spectra in cuvette (“UV-Vis”) were acquired on a Varian CaryScan 50 (1 cm, 100 μL or 1 mL volume) with Peltier cell temperature control unit maintained at 37° C., in PBS at pH˜7.4 containing a low percentage of cosolvent if needed (typically 2% MeCN or 5% DMSO). A ThorLabs Polychrome V monochromator with a fibre optic cable output directed into the cuvette was used to perform photoisomerisation studies by UV-Vis spectrophotometry although single LEDs of approximately 10-20 mW output, 15-20° cone angle, and 10-15 nm bandwidth FWHM, obtained commercially from Roithner Lasertechnik GmbH, were equally successful in providing repeatable monochromatic photoisomerisation. Separated spectra of trans and […] forms were acquired from the inline Diode Array Detector on the AGILENT 1260 SL coupled LC-MS system after HPLC separation. Fluorescence spectrophotometry (excitation and emission spectra) were acquired on a Varian CaryEclipse fluorescence spectrophotometer.
# Fluorescence imaging is commonly used to sensitively, conveniently and non-invasively determine the local concentration of fluorescent species in biological and medical settings. Considering I.25 as an example of a compound of the invention bearing a fluorescent reporter, it was considered desirable that its rhodamine moiety would allow fluorescence detection of I.25.
structure (smiles),measurement,setting,value
"COc1ccc(N=Nc2cc(OC)c(OC)c(OC)c2)cc1O [I.1, 2-methoxy-5-((3,4,5-trimethoxyphenyl)diazenyl)phenol]",fold growth relative to cosolvent control (MTT),"[1]; 100 nM, 390 nm, 0.35 s every 2 min",1.31
same,fold growth relative to cosolvent control (MTT),"[1]; 100 nM, 390 nm, 0.35s then 490 nm, 3 s (rescue) every 2 min",1.26
same,fold growth relative to cosolvent control (MTT),"[1]; 100 nM, 410 nm, 0.35 s every 2 min",1.19
same,fold growth relative to cosolvent control (MTT),"[1]; 100 nM, 410 nm, 0.35 s then 505 nm, 3 s (rescue) every 2 min",1.29
same,fold growth relative to cosolvent control (MTT),"[1]; 100 nM, 475 nm, 3 s every 2 min",1.11
same,fold growth relative to cosolvent control (MTT),"[1]; 100 nM, 490 nm, 3 s every 2 min",1.10
same,fold growth relative to cosolvent control (MTT),"[1]; 100 nM, 505 nm, 3 s every 2 min",1.22
same,fold growth relative to cosolvent control (MTT),"[1]; 100 nM, 525 nm, 3 s every 2 min",1.12
same,fold growth relative to cosolvent control (MTT),"[1]; 100 nM, Dark",1.29
same,fold growth relative to cosolvent control (MTT),"[1]; 400 nM, 390 nm, 0.35 s every 2 min",0.67
same,fold growth relative to cosolvent control (MTT),"[1]; 400 nM, 390 nm, 0.35s then 490 nm, 3 s (rescue) every 2 min",0.69
same,fold growth relative to cosolvent control (MTT),"[1]; 400 nM, 410 nm, 0.35 s every 2 min",0.70
same,fold growth relative to cosolvent control (MTT),"[1]; 400 nM, 410 nm, 0.35 s then 505 nm, 3 s (rescue) every 2 min",0.86
same,fold growth relative to cosolvent control (MTT),"[1]; 400 nM, 475 nm, 3 s every 2 min",0.55
same,fold growth relative to cosolvent control (MTT),"[1]; 400 nM, 490 nm, 3 s every 2 min",0.69
same,fold growth relative to cosolvent control (MTT),"[1]; 400 nM, 505 nm, 3 s every 2 min",0.87
same,fold growth relative to cosolvent control (MTT),"[1]; 400 nM, 525 nm, 3 s every 2 min",0.82
same,fold growth relative to cosolvent control (MTT),"[1]; 400 nM, Dark",0.87
same,fold growth relative to cosolvent control (MTT),"[1]; 800 nM, 390 nm, 0.35 s every 2 min",0.38
same,fold growth relative to cosolvent control (MTT),"[1]; 800 nM, 390 nm, 0.35s then 490 nm, 3 s (rescue) every 2 min",0.33
same,fold growth relative to cosolvent control (MTT),"[1]; 800 nM, 410 nm, 0.35 s every 2 min",0.51
same,fold growth relative to cosolvent control (MTT),"[1]; 800 nM, 410 nm, 0.35 s then 505 nm, 3 s (rescue) every 2 min",0.67
same,fold growth relative to cosolvent control (MTT),"[1]; 800 nM, 475 nm, 3 s every 2 min",0.37
same,fold growth relative to cosolvent control (MTT),"[1]; 800 nM, 490 nm, 3 s every 2 min",0.43
same,fold growth relative to cosolvent control (MTT),"[1]; 800 nM, 505 nm, 3 s every 2 min",0.92
same,fold growth relative to cosolvent control (MTT),"[1]; 800 nM, 525 nm, 3 s every 2 min",1.00
same,fold growth relative to cosolvent control (MTT),"[1]; 800 nM, Dark",0.95
same,fold growth relative to cosolvent control (MTT),"[1]; 1.5 μM, 390 nm, 0.35 s every 2 min",0.22
same,fold growth relative to cosolvent control (MTT),"[1]; 1.5 μM, 390 nm, 0.35s then 490 nm, 3 s (rescue) every 2 min",0.18
same,fold growth relative to cosolvent control (MTT),"[1]; 1.5 μM, 410 nm, 0.35 s every 2 min",0.25
same,fold growth relative to cosolvent control (MTT),"[1]; 1.5 μM, 410 nm, 0.35 s then 505 nm, 3 s (rescue) every 2 min",0.25
same,fold growth relative to cosolvent control (MTT),"[1]; 1.5 μM, 475 nm, 3 s every 2 min",0.19
same,fold growth relative to cosolvent control (MTT),"[1]; 1.5 μM, 490 nm, 3 s every 2 min",0.19
same,fold growth relative to cosolvent control (MTT),"[1]; 1.5 μM, 505 nm, 3 s every 2 min",0.42
same,fold growth relative to cosolvent control (MTT),"[1]; 1.5 μM, 525 nm, 3 s every 2 min",0.66
same,fold growth relative to cosolvent control (MTT),"[1]; 1.5 μM, Dark",0.71
same,fold growth relative to cosolvent control (MTT),"[1]; 3 μM, 390 nm, 0.35 s every 2 min",0.17
same,fold growth relative to cosolvent control (MTT),"[1]; 3 μM, 390 nm, 0.35s then 490 nm, 3 s (rescue) every 2 min",0.14
same,fold growth relative to cosolvent control (MTT),"[1]; 3 μM, 410 nm, 0.35 s every 2 min",0.18
same,fold growth relative to cosolvent control (MTT),"[1]; 3 μM, 410 nm, 0.35 s then 505 nm, 3 s (rescue) every 2 min",0.22
same,fold growth relative to cosolvent control (MTT),"[1]; 3 μM, 475 nm, 3 s every 2 min",0.15
same,fold growth relative to cosolvent control (MTT),"[1]; 3 μM, 490 nm, 3 s every 2 min",0.20
same,fold growth relative to cosolvent control (MTT),"[1]; 3 μM, 505 nm, 3 s every 2 min",0.27
same,fold growth relative to cosolvent control (MTT),"[1]; 3 μM, 525 nm, 3 s every 2 min",0.64
same,fold growth relative to cosolvent control (MTT),"[1]; 3 μM, Dark",0.66
same,fold growth relative to cosolvent control (MTT),"[1]; 6 μM, 390 nm, 0.35 s every 2 min",0.29
same,fold growth relative to cosolvent control (MTT),"[1]; 6 μM, 390 nm, 0.35s then 490 nm, 3 s (rescue) every 2 min",0.18
same,fold growth relative to cosolvent control (MTT),"[1]; 6 μM, 410 nm, 0.35 s every 2 min",0.23
same,fold growth relative to cosolvent control (MTT),"[1]; 6 μM, 410 nm, 0.35 s then 505 nm, 3 s (rescue) every 2 min",0.30
same,fold growth relative to cosolvent control (MTT),"[1]; 6 μM, 475 nm, 3 s every 2 min",0.21
same,fold growth relative to cosolvent control (MTT),"[1]; 6 μM, 490 nm, 3 s every 2 min",0.34
same,fold growth relative to cosolvent control (MTT),"[1]; 6 μM, 505 nm, 3 s every 2 min",0.27
same,fold growth relative to cosolvent control (MTT),"[1]; 6 μM, 525 nm, 3 s every 2 min",0.39
same,fold growth relative to cosolvent control (MTT),"[1]; 6 μM, Dark",0.80
same,fold growth relative to cosolvent control (MTT),"[1]; 15 μM, 390 nm, 0.35 s every 2 min",0.28
same,fold growth relative to cosolvent control (MTT),"[1]; 15 μM, 390 nm, 0.35s then 490 nm, 3 s (rescue) every 2 min",0.21
same,fold growth relative to cosolvent control (MTT),"[1]; 15 μM, 410 nm, 0.35 s every 2 min",0.23
same,fold growth relative to cosolvent control (MTT),"[1]; 15 μM, 410 nm, 0.35 s then 505 nm, 3 s (rescue) every 2 min",0.24
same,fold growth relative to cosolvent control (MTT),"[1]; 15 μM, 475 nm, 3 s every 2 min",0.17
same,fold growth relative to cosolvent control (MTT),"[1]; 15 μM, 490 nm, 3 s every 2 min",0.31
same,fold growth relative to cosolvent control (MTT),"[1]; 15 μM, 505 nm, 3 s every 2 min",0.20
same,fold growth relative to cosolvent control (MTT),"[1]; 15 μM, 525 nm, 3 s every 2 min",0.29
same,fold growth relative to cosolvent control (MTT),"[1]; 15 μM, Dark",0.87
"CCN(CC)c1ccc2c(-c3ccccc3C(=O)N3CCN(CCCOc4c(N=Nc5cc(OC)c(OC)c(OC)c5)ccc(OC)c4C)CC3)c3ccc(=[N+](CC)CC)cc-3oc2c1.CCN(CC)c1ccc2c(-c3ccccc3C(=O)N3CCN(CCCOc4c(N=Nc5cc(OC)c(OC)c(OC)c5)ccc(OC)c4C)CC3)c3ccc(=[N+](CC)CC)cc-3oc2c1.O=C[O-].O=C[O-] [I.25, N-(6-(diethylamino)-9-(2-(4-(3-(3-methoxy-2-methyl-6-((3,4,5-trimethoxyphenyl)diazenyl)phenoxy)propyl)piperazine-1-carbonyl)phenyl)-3H-xanthen-3-ylidene)-N-ethylethanaminium bis(formate) salt]",excitation wavelength giving maximum emission intensity,[2]; emission at 590 nm,570 nm
same,fluorescence emission maximum,"[2]; excited at 380 nm or 554 nm, 10 μM, 60:32:8 EtOH:PBS:MeCN, 25° C.",590 nm
